Experimental data taken from PMC9002841, “Characterization of Promising Cytotoxic Metabolites from Tabebuia guayacan Hemsl.: Computational Prediction and In Vitro Testing” (Plants, 2022).

What was measured:
VEGFR-2 (KDR) = biological target: T1, VEGFR-2 (KDR) (Homo sapiens, UniProt P35968); test: In vitro VEGFR-2 inhibitory activity (Kinase-Glo MAX kinase assay); type: biochemical; conditions: mean ± SD
T1 construct: purchased #40325
Text: (§1) The Assay Kits are designed to measure CDK2/CyclinA2 and VEGFR-2 (KDR) activities for screening and profiling applications, using Kinase-Glo® MAX as a detection reagent. The CDK-2 Assay Kit comes in a convenient 96-well format, with enough purified recombinant CDK2/CyclinA2 enzyme, CDK substrate peptide, ATP, and kinase assay buffer for 100 enzyme reactions, while the VEGFR-2 Assay Kit comes in a convenient 96-well format, with enough purified recombinant VEGFR-2 (KDR) enzyme, PTK substrate, ATP, and kinase assay buffer for 100 enzyme reactions. […] The CDK2/CyclinA2 and VEGFR-2 (KDR) activities at a single dose concentration of 10µM were performed, where the Kinase-Glo MAX luminescence kinase assay kit (Promega#V6071) was used. The compounds were diluted in 10% DMSO and 5 µL of the dilution was added to a 50 µL reaction so that the final concentration of DMSO was 1% in all of the reactions. All of the enzymatic reactions were conducted at 30 °C for 45 min. […] After the enzymatic reactions, 50 µL of Kinase-Glo® MAX Luminescence kinase assay solution was added to each reaction and the plates were incubated for 15 min at room temperature. Luminescence signal was measured using a Bio Tek Synergy 2 microplate reader.
(§2) Data were analyzed using one-way analysis of variance (ANOVA) for multiple comparison between all compounds followed by Tukey–Kramer post-ANOVA test. […]

CDK6/Cyclin D3 = biological target: T2, CDK6/Cyclin D3 (Homo sapiens, UniProt Q00534); test: In vitro CDK-6 inhibitory activity (ADP-Glo kinase assay); type: biochemical; conditions: mean ± SD
T2 construct: purchased Promega V4489
T2 sequence (Q00534 whole entry): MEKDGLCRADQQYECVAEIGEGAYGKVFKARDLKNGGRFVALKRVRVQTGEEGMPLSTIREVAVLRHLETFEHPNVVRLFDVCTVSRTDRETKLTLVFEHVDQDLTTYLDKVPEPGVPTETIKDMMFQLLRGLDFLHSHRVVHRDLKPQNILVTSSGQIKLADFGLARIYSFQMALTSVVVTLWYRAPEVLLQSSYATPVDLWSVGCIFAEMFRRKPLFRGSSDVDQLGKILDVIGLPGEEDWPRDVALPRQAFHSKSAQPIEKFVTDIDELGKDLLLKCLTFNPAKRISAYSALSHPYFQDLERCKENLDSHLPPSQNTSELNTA
T2 sequence (P30281 whole entry partner): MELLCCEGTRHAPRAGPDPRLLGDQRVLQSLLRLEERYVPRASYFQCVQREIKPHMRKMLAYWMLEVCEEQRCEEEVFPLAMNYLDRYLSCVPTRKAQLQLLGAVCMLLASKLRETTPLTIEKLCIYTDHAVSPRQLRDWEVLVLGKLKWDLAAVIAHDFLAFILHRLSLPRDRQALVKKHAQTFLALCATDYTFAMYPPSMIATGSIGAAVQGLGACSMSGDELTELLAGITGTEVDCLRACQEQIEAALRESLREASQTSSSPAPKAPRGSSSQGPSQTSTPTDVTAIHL
Procedure: Data were analyzed using one-way analysis of variance (ANOVA) for multiple comparison between all compounds followed by Tukey–Kramer post-ANOVA test. The differences were considered statistically significant at p < 0.05.

CDK2/CyclinA2 = biological target: T3, CDK2/CyclinA2 (Homo sapiens, UniProt P24941); test: In vitro CDK-2 inhibitory activity (Kinase-Glo MAX kinase assay); type: biochemical; conditions: mean ± SD
T3 construct: purchased #79599
Text: as §1, §2

topoisomerase-1 = conditions: cited from earlier work

T1 sequence (P35968 20-1356): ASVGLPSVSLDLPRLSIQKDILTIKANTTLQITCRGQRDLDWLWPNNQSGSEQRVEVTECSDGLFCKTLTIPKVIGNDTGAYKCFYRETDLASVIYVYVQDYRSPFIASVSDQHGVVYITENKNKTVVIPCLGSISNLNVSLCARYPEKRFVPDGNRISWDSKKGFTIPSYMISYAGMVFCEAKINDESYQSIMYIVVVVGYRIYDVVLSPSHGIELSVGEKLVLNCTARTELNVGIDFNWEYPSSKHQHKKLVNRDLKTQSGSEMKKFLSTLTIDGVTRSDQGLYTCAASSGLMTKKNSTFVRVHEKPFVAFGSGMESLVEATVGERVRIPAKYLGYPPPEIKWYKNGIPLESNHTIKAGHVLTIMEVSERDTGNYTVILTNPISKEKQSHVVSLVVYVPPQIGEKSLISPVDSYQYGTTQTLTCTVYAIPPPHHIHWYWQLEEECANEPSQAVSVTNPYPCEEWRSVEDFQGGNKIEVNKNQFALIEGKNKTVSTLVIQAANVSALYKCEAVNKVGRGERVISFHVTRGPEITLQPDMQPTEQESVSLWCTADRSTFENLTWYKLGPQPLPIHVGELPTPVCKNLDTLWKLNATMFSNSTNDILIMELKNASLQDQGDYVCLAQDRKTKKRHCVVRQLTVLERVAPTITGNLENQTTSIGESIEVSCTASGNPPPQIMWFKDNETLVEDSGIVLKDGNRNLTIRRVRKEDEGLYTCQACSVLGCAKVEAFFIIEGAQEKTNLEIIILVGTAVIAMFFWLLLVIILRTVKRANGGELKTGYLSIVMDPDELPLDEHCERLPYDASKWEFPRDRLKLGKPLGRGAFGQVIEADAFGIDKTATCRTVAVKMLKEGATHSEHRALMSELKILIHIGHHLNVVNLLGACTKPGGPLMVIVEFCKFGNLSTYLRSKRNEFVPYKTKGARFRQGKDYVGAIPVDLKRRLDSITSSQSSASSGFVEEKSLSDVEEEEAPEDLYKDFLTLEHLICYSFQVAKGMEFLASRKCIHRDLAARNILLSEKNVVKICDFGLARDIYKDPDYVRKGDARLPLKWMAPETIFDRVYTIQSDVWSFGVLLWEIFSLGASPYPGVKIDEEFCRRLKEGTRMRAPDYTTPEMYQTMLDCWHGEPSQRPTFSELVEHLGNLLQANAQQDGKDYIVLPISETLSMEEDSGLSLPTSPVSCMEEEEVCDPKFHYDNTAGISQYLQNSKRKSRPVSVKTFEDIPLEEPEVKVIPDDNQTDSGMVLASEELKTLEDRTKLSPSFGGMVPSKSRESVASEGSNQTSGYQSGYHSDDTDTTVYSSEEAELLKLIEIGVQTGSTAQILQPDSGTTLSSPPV

## O=c1c(OC2OCC(O)C(O)C2O)c(-c2ccc(O)c(O)c2)oc2cc(O)cc(O)c12 (stereo not drawn) [Compound 10, quercetin 3-O-β-xyloside]
VEGFR-2 (KDR)
  IC50: 193 nM
CDK6/Cyclin D3
  IC50: 355 nM

## CC[C@H](CC[C@@H](C)[C@H]1CC[C@H]2[C@@H]3CC=C4C[C@@H](O)CC[C@]4(C)[C@H]3CC[C@]12C)C(C)C [Compound 1, β-sitosterol]
CDK2/CyclinA2
  IC50: 581 nM

## C[C@H]1[C@H](C)CC[C@]2(C(=O)O)CC[C@]3(C)C(=CC[C@@H]4[C@@]5(C)C[C@@H](O)[C@H](O)C(C)(C)[C@@H]5CC[C@]43C)[C@H]12 [Compound 3, corosolic acid]
CDK2/CyclinA2
  IC50: 239 nM

## O=c1cc(-c2ccc(O)c(O)c2)oc2cc(OC3O[C@@H](CO)[C@H](O)[C@@H](O)[C@@H]3O)cc(O)c12 (stereo partly drawn) [Compound 16, luteolin-7-O-β-glucoside]
topoisomerase-1
  inhibitory activity against topoisomerase-1: especially poisonous
